Measurements reported in ChEMBL document CHEMBL3885881, “DrugMatrix”.

Organism: Rattus norvegicus
Format: toxicity, organism-based, Sprague-Dawley
Settings: in vivo, po, route oral GAVAGE, […]; for ABSOLUTE EOSINOPHIL / ABSOLUTE LYMPHOCYTE / ABSOLUTE MONOCYTE / ABSOLUTE SEGMENTED NEUTROPHIL / BASOPHIL / EOSINOPHIL / ERYTHROCYTE COUNT / HEMATOCRIT / HEMOGLOBIN / LEUKOCYTE COUNT / LYMPHOCYTE / MEAN CORPUSCULAR HEMOGLOBIN / MEAN CORPUSCULAR HEMOGLOBIN CONCENTRATION / MEAN CORPUSCULAR VOLUME / MONOCYTE / NEUTROPHIL / NUCLEATED RED BLOOD CELLS / PLATELET COUNT: tissue Blood; for ALANINE AMINOTRANSFERASE / ALKALINE PHOSPHATASE / ASPARTATE AMINOTRANSFERASE / BLOOD UREA NITROGEN / CARBON DIOXIDE / CHLORIDE / CHOLESTEROL / CREATINE PHOSPHOKINASE / CREATININE / GLUCOSE / LACTATE DEHYDROGENASE / LIPASE / PHOSPHORUS / POTASSIUM / SODIUM / TOTAL BILIRUBIN / TOTAL PROTEIN / URIC ACID: tissue Plasma
[1] = 100 mg/kg, 24 h, dose level Low, time 1 day
[2] = 700 mg/kg, 6 h, dose level High, time 0.25 day
[3] = 700 mg/kg, 24 h, dose level High, time 1 day

Description: DrugMatrix - Regimen: Single

Cc1ccc(C)c(OCCCC(C)(C)C(=O)O)c1 [GEMFIBROZIL]
ABSOLUTE EOSINOPHIL [1]: 126.33 CELLS/uL
ABSOLUTE LYMPHOCYTE [1]: 13618.33 CELLS/uL
ABSOLUTE MONOCYTE [1]: 235.33 CELLS/uL
ABSOLUTE SEGMENTED NEUTROPHIL [1]: 1320 CELLS/uL
BASOPHIL [1]: 0%
EOSINOPHIL [1]: 0.83%
ERYTHROCYTE COUNT [1]: 5.54 x10E6/uL
HEMATOCRIT [1]: 35.43%
HEMOGLOBIN [1]: 13.82 G/DL
LEUKOCYTE COUNT [1]: 15.3 x10E3/uL
LYMPHOCYTE [1]: 89.17%
MEAN CORPUSCULAR HEMOGLOBIN [1]: 25.02 pg
MEAN CORPUSCULAR HEMOGLOBIN CONCENTRATION [1]: 39 G/DL
MEAN CORPUSCULAR VOLUME [1]: 64.12 fL
MONOCYTE [1]: 1.5%
NEUTROPHIL [1]: 8.5%
NUCLEATED RED BLOOD CELLS [1]: 0 /100WBC
PLATELET COUNT [1]: 879.83 x10E3/uL
ALANINE AMINOTRANSFERASE [1]: 82.17 u/L
ALKALINE PHOSPHATASE [1]: 348.5 u/L
ASPARTATE AMINOTRANSFERASE [1]: 88.67 u/L
BLOOD UREA NITROGEN [1]: 11.17 mg/dL
CARBON DIOXIDE [1]: 30.17 mmol/L
CHLORIDE [1]: 101.33 MEQ/L
CHOLESTEROL [1]: 57.17 mg/dL
CREATINE PHOSPHOKINASE [1]: 237 u/L
CREATININE [1]: 0.18 mg/dL
GLUCOSE [1]: 138.33 mg/dL
LACTATE DEHYDROGENASE [1]: 130.5 u/L
LIPASE [1]: 8.67 u/L
PHOSPHORUS [1]: 9.87 mg/dL
POTASSIUM [1]: 6.21 MEQ/L
SODIUM [1]: 146.35 MEQ/L
TOTAL BILIRUBIN [1]: 0.15 mg/dL
TOTAL PROTEIN [1]: 5.83 G/DL
URIC ACID [1]: 1.02 mg/dL
ABSOLUTE EOSINOPHIL [2]: 0 CELLS/uL
ABSOLUTE LYMPHOCYTE [2]: 11512.83 CELLS/uL
ABSOLUTE MONOCYTE [2]: 281.33 CELLS/uL
ABSOLUTE SEGMENTED NEUTROPHIL [2]: 1289.17 CELLS/uL
BASOPHIL [2]: 0%
EOSINOPHIL [2]: 0%
ERYTHROCYTE COUNT [2]: 5.72 x10E6/uL
HEMATOCRIT [2]: 36.68%
HEMOGLOBIN [2]: 14.32 G/DL
LEUKOCYTE COUNT [2]: 13.08 x10E3/uL
LYMPHOCYTE [2]: 87.5%
MEAN CORPUSCULAR HEMOGLOBIN [2]: 25.02 pg
MEAN CORPUSCULAR HEMOGLOBIN CONCENTRATION [2]: 39.02 G/DL
MEAN CORPUSCULAR VOLUME [2]: 64.17 fL
MONOCYTE [2]: 2.33%
NEUTROPHIL [2]: 10.17%
NUCLEATED RED BLOOD CELLS [2]: 0 /100WBC
PLATELET COUNT [2]: 1058.5 x10E3/uL
ALANINE AMINOTRANSFERASE [2]: 68.17 u/L
ALKALINE PHOSPHATASE [2]: 373.33 u/L
ASPARTATE AMINOTRANSFERASE [2]: 85.5 u/L
BLOOD UREA NITROGEN [2]: 9.83 mg/dL
CARBON DIOXIDE [2]: 30.5 mmol/L
CHLORIDE [2]: 95.17 MEQ/L
CHOLESTEROL [2]: 81.83 mg/dL
CREATINE PHOSPHOKINASE [2]: 224.83 u/L
CREATININE [2]: 0.16 mg/dL
GLUCOSE [2]: 138.17 mg/dL
LACTATE DEHYDROGENASE [2]: 127.17 u/L
LIPASE [2]: 12.33 u/L
PHOSPHORUS [2]: 11.42 mg/dL
POTASSIUM [2]: 6.25 MEQ/L
SODIUM [2]: 143.7 MEQ/L
TOTAL BILIRUBIN [2]: 0.68 mg/dL
TOTAL PROTEIN [2]: 6.2 G/DL
URIC ACID [2]: 1.3 mg/dL
ABSOLUTE EOSINOPHIL [3]: 30.33 CELLS/uL
ABSOLUTE LYMPHOCYTE [3]: 15144 CELLS/uL
ABSOLUTE MONOCYTE [3]: 266 CELLS/uL
ABSOLUTE SEGMENTED NEUTROPHIL [3]: 893 CELLS/uL
BASOPHIL [3]: 0%
EOSINOPHIL [3]: 0.17%
ERYTHROCYTE COUNT [3]: 5.34 x10E6/uL
HEMATOCRIT [3]: 34.55%
HEMOGLOBIN [3]: 13.67 G/DL
LEUKOCYTE COUNT [3]: 16.33 x10E3/uL
LYMPHOCYTE [3]: 92.33%
MEAN CORPUSCULAR HEMOGLOBIN [3]: 25.58 pg
MEAN CORPUSCULAR HEMOGLOBIN CONCENTRATION [3]: 39.58 G/DL
MEAN CORPUSCULAR VOLUME [3]: 64.72 fL
MONOCYTE [3]: 1.67%
NEUTROPHIL [3]: 5.83%
NUCLEATED RED BLOOD CELLS [3]: 0.33 /100WBC
PLATELET COUNT [3]: 1050.67 x10E3/uL
ALANINE AMINOTRANSFERASE [3]: 55.83 u/L
ALKALINE PHOSPHATASE [3]: 484.5 u/L
ASPARTATE AMINOTRANSFERASE [3]: 65.17 u/L
BLOOD UREA NITROGEN [3]: 10.67 mg/dL
CARBON DIOXIDE [3]: 28 mmol/L
CHLORIDE [3]: 100 MEQ/L
CHOLESTEROL [3]: 71 mg/dL
CREATINE PHOSPHOKINASE [3]: 320.67 u/L
CREATININE [3]: 0.21 mg/dL
GLUCOSE [3]: 140.83 mg/dL
LACTATE DEHYDROGENASE [3]: 120.67 u/L
LIPASE [3]: 9.67 u/L
PHOSPHORUS [3]: 10.38 mg/dL
POTASSIUM [3]: 5.59 MEQ/L
SODIUM [3]: 146.73 MEQ/L
TOTAL BILIRUBIN [3]: 0.25 mg/dL
TOTAL PROTEIN [3]: 5.97 G/DL
URIC ACID [3]: 1.07 mg/dL
